In PubChem BioAssay AID330 (DTP/NCI, 2004) one finds T/C data, which are given here for 22 molecules.

Values joined by “and” are separate entries in the source; they are usually repeats but may differ in a detail not shown here. Equal values may be shown once. Toxic doses and inconclusive results are not listed.

The experiment has as its system P388 leukemia ip, CD2F1 mice, survival T/C. Description: NCI In Vivo Anticancer Drug Screen. Data for tumor model P388 Leukemia (intraperitoneal) in CD2F1 (CDF1) mice. Conditions: endpoint: median survival time, higher = longer survival. The gist of the method: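 Mice carrying the transplanted tumor received test compound or vehicle. Survival was recorded in each group, and the value is the treated-group measurement divided by that of the vehicle-treated control group.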

Where [1] appears, read: dose: 60.0 mg/kg/injection, schedule: Q01DX005 (ip), vehicle: saline with Tween-80.
Where [2] appears, read: dose: 120.0 mg/kg/injection, schedule: Q01DX005 (ip), vehicle: saline with Tween-80.
Where [3] appears, read: dose: 25.0 mg/kg/injection, schedule: Q01DX009 (ip), vehicle: Klucel (hydroxypropylcellulose) (HPC).
The mark [4] stands for this setting: dose: 50.0 mg/kg/injection, schedule: Q01DX009 (ip), vehicle: Klucel (hydroxypropylcellulose) (HPC).
[5] abbreviates: dose: 100.0 mg/kg/injection, schedule: Q01DX009 (ip), vehicle: Klucel (hydroxypropylcellulose) (HPC).
Where [6] appears, read: dose: 50.0 mg/kg/injection, schedule: Q01DX005 (ip), vehicle: Klucel (hydroxypropylcellulose) (HPC).
Setting [7] is: dose: 100.0 mg/kg/injection, schedule: Q01DX005 (ip), vehicle: Klucel (hydroxypropylcellulose) (HPC).
Setting [8] is: dose: 200.0 mg/kg/injection, schedule: Q01DX005 (ip), vehicle: Klucel (hydroxypropylcellulose) (HPC).
Where [9] appears, read: dose: 200.0 mg/kg/injection, schedule: Q01DX009 (ip), vehicle: Klucel (hydroxypropylcellulose) (HPC).
Setting [10] is: dose: 12.5 mg/kg/injection, schedule: Q01DX009 (ip), vehicle: saline with Tween-80.

Turning to `CCCCCCCCCCCCCCCCCC(=O)OCCCCCCCCCCCCC`, the T/C (dose: 100.0 mg/kg/injection, schedule: Q01DX001 (ip), vehicle: other) was 95 % of control; the T/C (dose: 200.0 mg/kg/injection, schedule: Q01DX001 (ip), vehicle: other) was 100 % of control; the T/C (dose: 400.0 mg/kg/injection, schedule: Q01DX001 (ip), vehicle: other) is 95 % of control.
With `CCN(CC)CCNc1ccc(N)c2sc3ccccc3c(=O)c12`, the T/C is, setting by setting: (dose: 50.0 mg/kg/injection, schedule: Q01DX009 (ip), vehicle: saline with Tween-80) 103 % of control and 107 % of control and 119 % of control; (dose: 100.0 mg/kg/injection, schedule: Q01DX009 (ip), vehicle: saline with Tween-80) 115 % of control and 120 % of control and 122 % of control; (dose: 200.0 mg/kg/injection, schedule: Q01DX009 (ip), vehicle: saline with Tween-80) 96 % of control.
Regarding `O=C1CSC(c2ccccc2O)N1c1ccc(N2C(=O)CSC2c2ccccc2O)cc1` (stereo not drawn), the T/C (dose: 100.0 mg/kg/injection, schedule: Q01DX001 (ip), vehicle: saline with Tween-80) is 90 % of control; the T/C (dose: 200.0 mg/kg/injection, schedule: Q01DX001 (ip), vehicle: saline with Tween-80) was 87 % of control; the T/C (dose: 400.0 mg/kg/injection, schedule: Q01DX001 (ip), vehicle: saline with Tween-80) was 87 % of control.
With `O=C(Nc1cc(-c2ccccc2)[nH]n1)c1ccccc1`, the T/C runs as follows: under setting [1], 103 % of control; under setting [2], 106 % of control; (dose: 240.0 mg/kg/injection, schedule: Q01DX005 (ip), vehicle: saline with Tween-80) 100 % of control.
For the molecule `CCn1c2ccccc2c2cc(/C=N/N=C/c3ccc4c(c3)c3ccccc3n4CC)ccc21`, the T/C is, setting by setting: (dose: 3.12 mg/kg/injection, schedule: Q01DX005 (ip), vehicle: saline with Tween-80) 93 % of control; (dose: 6.25 mg/kg/injection, schedule: Q01DX005 (ip), vehicle: saline with Tween-80) 90 % of control; (dose: 12.5 mg/kg/injection, schedule: Q01DX005 (ip), vehicle: saline with Tween-80) 88 % of control.
Consider `COC(=O)C1=CO[C@@H](OC2OC(CO)C(O)C(O)C2O)[C@H]2[C@@H]1C=C[C@@]2(O)CO` (stereo partly drawn), for which the T/C is, setting by setting: (dose: 6.25 mg/kg/injection, schedule: Q01DX009 (ip), vehicle: Klucel (hydroxypropylcellulose) (HPC)) 100 % of control; (dose: 12.5 mg/kg/injection, schedule: Q01DX009 (ip), vehicle: Klucel (hydroxypropylcellulose) (HPC)) 88 % of control; under setting [3], 100 % of control; under setting [4], 99 % of control; under setting [5], 107 % of control.
On to `COc1cc(C2c3cc4c(c(OC)c3C(O)C3CC(=O)OC23)OCO4)cc(OC)c1OC` (stereo not drawn), for which the T/C under setting [1] was 115 % of control and the T/C under setting [2] was 116 % of control.
As for `CC(=O)OCC1OC(n2cnc3c(Cl)nc(N)nc32)C(OC(C)=O)C1OC(C)=O` (stereo not drawn), the T/C is, setting by setting: (dose: 25.0 mg/kg/injection, schedule: Q01DX005 (ip), vehicle: Klucel (hydroxypropylcellulose) (HPC)) 101 % of control; under setting [6], 101 % of control; under setting [7], 108 % of control; under setting [8], 105 % of control.
`COc1ccc(C(=O)CCS(=O)O)cc1`: the T/C by setting is: (dose: 100.0 mg/kg/injection, schedule: Q04DX002 (ip), vehicle: saline) 100 % of control; (dose: 200.0 mg/kg/injection, schedule: Q04DX002 (ip), vehicle: saline) 100 % of control; (dose: 400.0 mg/kg/injection, schedule: Q04DX002 (ip), vehicle: saline) 99 % of control.
In the case of `CCCCCCCCCCCCOC(=O)/C=C\C(=O)NC(N)=O`, the T/C runs as follows: (dose: 100.0 mg/kg/injection, schedule: Q04DX002 (ip), vehicle: Klucel (hydroxypropylcellulose) (HPC)) 117 % of control; (dose: 200.0 mg/kg/injection, schedule: Q04DX002 (ip), vehicle: Klucel (hydroxypropylcellulose) (HPC)) 123 % of control.
On to `COc1cc(C=Nc2cccc(F)c2)ccc1N(CCCl)CCCl`, for which the T/C is 109 % of control (dose: 0.25 mg/kg/injection, schedule: Q01DX009 (ip), vehicle: other); 113 % of control (dose: 0.5 mg/kg/injection, schedule: Q01DX009 (ip), vehicle: other); 122 % of control (dose: 1.0 mg/kg/injection, schedule: Q01DX009 (ip), vehicle: other).
With `CC(=O)[O][Hg][CH2]C1Cc2ccccc2O1` (stereo not drawn), the T/C is 98 % of control (dose: 2.5 mg/kg/injection, schedule: Q01DX009 (ip), vehicle: saline); 99 % of control (dose: 5.0 mg/kg/injection, schedule: Q01DX009 (ip), vehicle: saline); 99 % of control (dose: 10.0 mg/kg/injection, schedule: Q01DX009 (ip), vehicle: saline); 100 % of control (dose: 20.0 mg/kg/injection, schedule: Q01DX009 (ip), vehicle: saline).
Consider `CC(=O)Oc1ccc2ccc(=O)oc2c1OC(C)=O`, for which the T/C reads like this: under setting [3], 102 % of control; under setting [4], 101 % of control; under setting [5], 109 % of control; under setting [9], 118 % of control.
With `CCC(C)C(C)CNC12CN3CN(CN(C3)C1)C2` (stereo not drawn), the T/C is 103 % of control (dose: 50.0 mg/kg/injection, schedule: Q01DX001 (ip), vehicle: saline); 104 % of control (dose: 100.0 mg/kg/injection, schedule: Q01DX001 (ip), vehicle: saline); 108 % of control (dose: 200.0 mg/kg/injection, schedule: Q01DX001 (ip), vehicle: saline).
As for `CCCCCCCCCCCCN(O)C(=O)c1ccccc1`, the T/C under setting [4] was 99 % of control and 115 % of control; the T/C under setting [5] was 104 % of control; the T/C under setting [9] was 108 % of control and 96 % of control.
In the case of `COc1cc(C)ccc1C1=NC(C)(c2ccc(C)cc2OC)NC1=S` (stereo not drawn), the T/C was 124 % of control (dose: 37.5 mg/kg/injection, schedule: Q01DX009 (ip), vehicle: Klucel (hydroxypropylcellulose) (HPC)) and 120 % of control (dose: 75.0 mg/kg/injection, schedule: Q01DX009 (ip), vehicle: Klucel (hydroxypropylcellulose) (HPC)).
On to `N#C/C(=N\Nc1ccccc1)C(N)=S`, for which the T/C is 109 % of control (dose: 12.5 mg/kg/injection, schedule: Q01DX009 (ip), vehicle: other); 93 % of control (dose: 25.0 mg/kg/injection, schedule: Q01DX009 (ip), vehicle: other); 91 % of control (dose: 50.0 mg/kg/injection, schedule: Q01DX009 (ip), vehicle: other).
As to `CN(N=O)C(N)=O`, the T/C (dose: 5.0 mg/kg/injection, schedule: Q04DX003 (ip), vehicle: saline with Tween-80) was 104 % of control; the T/C (dose: 10.0 mg/kg/injection, schedule: Q04DX003 (ip), vehicle: saline with Tween-80) was 119 % of control; the T/C under setting [10] is 159 % of control; the T/C (dose: 25.0 mg/kg/injection, schedule: Q01DX009 (ip), vehicle: saline with Tween-80) is 95 % of control; the T/C (dose: 25.0 mg/kg/injection, schedule: Q04DX003 (ip), vehicle: saline with Tween-80) is 177 % of control; the T/C (dose: 37.5 mg/kg/injection, schedule: Q04DX003 (ip), vehicle: saline with Tween-80) was 172 % of control. Further, for the setting “dose: 50.0 mg/kg/injection, schedule: Q04DX003 (ip), vehicle: saline with Tween-80”, the T/C is 113 % of control.
On to `CC(=O)N1C=CN(C(C)=O)C1c1c[nH]c2ccccc12`, for which the T/C reads like this: under setting [6], 98 % of control; under setting [7], 104 % of control; under setting [8], 99 % of control.
`O=[N+]([O-])c1cnc(Sc2ccncn2)c([N+](=O)[O-])c1`: the T/C (dose: 3.12 mg/kg/injection, schedule: Q01DX009 (ip), vehicle: saline with Tween-80) was 105 % of control; the T/C (dose: 6.25 mg/kg/injection, schedule: Q01DX009 (ip), vehicle: saline with Tween-80) was 98 % of control; the T/C under setting [10] is 102 % of control; the T/C (dose: 12.5 mg/kg/injection, schedule: Q01DX009 (ip), vehicle: saline) was 100 % of control; the T/C (dose: 25.0 mg/kg/injection, schedule: Q01DX009 (ip), vehicle: saline) is 89 % of control; the T/C (dose: 50.0 mg/kg/injection, schedule: Q01DX009 (ip), vehicle: saline) was 99 % of control.
As for `Nc1cccc2ccccc12`, under “dose: 100.0 mg/kg/injection, schedule: Q04DX003 (ip), vehicle: saline with Tween-80”, the T/C was 94 % of control.
For the molecule `CC(=O)/C=C1\C(=O)OCC1(C)C`, the T/C runs as follows: (dose: 100.0 mg/kg/injection, schedule: Q04DX003 (ip), vehicle: saline) 105 % of control; (dose: 200.0 mg/kg/injection, schedule: Q04DX003 (ip), vehicle: saline) 108 % of control; (dose: 400.0 mg/kg/injection, schedule: Q04DX003 (ip), vehicle: saline) 111 % of control.
